The source of these data is PubChem BioAssay (NCI).

Test systems include EKVX NSCLC; NCI-H23 lung; NCI-H460 lung; SF-539 CNS; PC-3 prostate; HOP-62 NSCLC; CAKI-1 renal; OVCAR-3 ovarian; SNB-19 CNS; SK-MEL-2 melanoma.
What all share (test): NCI-60 cell line screen, 48 h

“And” between values parts separate entries of the source, which are not always exact repeats. Identical values can stand only once.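 Grown in 96-well plates, cells were treated for 48 hours with each compound at five concentrations. Insufficient inhibition: endpoint recorded as highest concentration tested. GI50 = concentration required for 50% inhibition of growth. TGI is the concentration that stops growth completely.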

On to `Cc1nn(C(=O)Cc2ccccc2)c2c1C(c1ccc(Cl)cc1)SC(N)=N2` (centres undefined), for which the TGI in the assay with EKVX NSCLC, in the assay on NCI-H23 lung, with NCI-H460 lung, with SF-539 CNS, with PC-3 prostate and with HOP-62 NSCLC was over 100 µM each time. The molecule also registered a TGI in the assay with CAKI-1 renal of over 100 µM.

Regarding `CN(CCO)c1ccc(N2Cc3ccccc3OC3=C2C(=O)c2c(O)ccc(O)c2C3=O)cn1`, the GI50 with EKVX NSCLC is 0.284 µM; in the assay on NCI-H23 lung, 0.263 µM; in the assay on NCI-H460 lung, 0.355 µM; with SF-539 CNS, 0.214 µM; in the assay with PC-3 prostate, 0.296 µM; in the assay with OVCAR-3 ovarian it was 0.111 µM. In addition, the GI50 was 0.508 µM with HOP-62 NSCLC, 0.465 µM in the assay on SNB-19 CNS and 0.299 µM in the assay on SK-MEL-2 melanoma. In addition, the TGI with EKVX NSCLC turned out to be 1.45 µM; with NCI-H23 lung, 0.834 µM; in the assay on NCI-H460 lung, 1.35 µM; in the assay with SF-539 CNS, 0.524 µM; in the assay on PC-3 prostate it was 0.888 µM; in the assay with OVCAR-3 ovarian, 0.276 µM. In addition, the TGI with HOP-62 NSCLC amounted to 1.79 µM; with SNB-19 CNS, 1.67 µM; with SK-MEL-2 melanoma, 0.99 µM.

For `CN(C)CCNC(=O)c1ccc2nc3c(nc2c1)C(=O)c1ccccc1-3`, the TGI in the assay on EKVX NSCLC is over 100 µM; in the assay with NCI-H23 lung it was over 100 µM; in the assay with NCI-H460 lung, 38.6 µM; in the assay with SF-539 CNS, over 100 µM; in the assay with PC-3 prostate it was over 100 µM; in the assay on OVCAR-3 ovarian it was over 100 µM. The TGI in the assay on HOP-62 NSCLC, in the assay with SNB-19 CNS and in the assay on CAKI-1 renal was over 100 µM in each case.

Consider `CCn1c(=O)c2c(=O)c3c4c(oc3oc2c2ccccc21)C(=O)c1ccccc1C4=O`, for which the GI50 was 1.47 µM in the assay with EKVX NSCLC; over 48.9 µM in the assay with NCI-H23 lung; over 100 µM in the assay with NCI-H460 lung; 3.32 µM in the assay with SF-539 CNS; 8.71 µM in the assay with PC-3 prostate; 0.627 µM in the assay with OVCAR-3 ovarian. For the same molecule, the GI50 was over 21.6 µM in the assay on HOP-62 NSCLC, over 57.7 µM in the assay on SNB-19 CNS and over 100 µM in the assay on SK-MEL-2 melanoma. The TGI is over 100 µM in the assay on EKVX NSCLC; over 100 µM with NCI-H23 lung; over 100 µM in the assay on NCI-H460 lung; over 100 µM with SF-539 CNS; over 100 µM in the assay with PC-3 prostate; 4.51 µM in the assay on OVCAR-3 ovarian. Further, the TGI in the assay on HOP-62 NSCLC, in the assay with SNB-19 CNS and in the assay on SK-MEL-2 melanoma was over 100 µM each time.

With `O=CN1CCN(CC(O)CN2CCCCC2)CC1` (centres undefined), the TGI in the assay on EKVX NSCLC, with NCI-H23 lung, with PC-3 prostate, with OVCAR-3 ovarian, in the assay with HOP-62 NSCLC and in the assay on SNB-19 CNS was over 100 µM throughout. Also, the TGI in the assay with SK-MEL-2 melanoma and in the assay with CAKI-1 renal was over 100 µM in each case.

Regarding `O=C(Nc1ccc(F)cc1)c1cc(S(=O)(=O)Nc2nc3ccccc3o2)c(SCc2ccccc2)cc1Cl`, the GI50 in the assay on EKVX NSCLC was 17.1 µM; with NCI-H23 lung, 19.5 µM; with NCI-H460 lung, 19.1 µM; with SF-539 CNS, 17.1 µM; in the assay with PC-3 prostate, 24.4 µM; in the assay with OVCAR-3 ovarian, 14.8 µM. The GI50 in the assay on HOP-62 NSCLC was 17.7 µM; in the assay on SNB-19 CNS it was 47 µM; with CAKI-1 renal it was 18.4 µM. The TGI in the assay on EKVX NSCLC worked out at 34 µM; in the assay on NCI-H23 lung it was 36.9 µM; with NCI-H460 lung, 43.5 µM; in the assay with SF-539 CNS, 31.2 µM; with PC-3 prostate, 53.5 µM; with OVCAR-3 ovarian it was 28.1 µM. The TGI with HOP-62 NSCLC is 33.5 µM; in the assay with SNB-19 CNS, over 100 µM; with CAKI-1 renal, 37.7 µM.

For `O=C1NC(=O)C(c2cccc([N+](=O)[O-])c2)=C1Nc1cc(Cl)c(O)c(Cl)c1`, the GI50 was over 25 µM in the assay with EKVX NSCLC; over 23.4 µM in the assay on NCI-H460 lung; over 25 µM in the assay with SF-539 CNS; over 25 µM in the assay on PC-3 prostate; over 17.9 µM with OVCAR-3 ovarian; over 25 µM in the assay with HOP-62 NSCLC. In addition, the figures for the GI50 with SNB-19 CNS, in the assay with SK-MEL-2 melanoma and in the assay on CAKI-1 renal were over 25 µM, over 19.8 µM and over 20.9 µM, respectively. Moreover, the TGI with EKVX NSCLC, with NCI-H460 lung, with SF-539 CNS, in the assay with PC-3 prostate, in the assay with OVCAR-3 ovarian and in the assay on HOP-62 NSCLC was over 25 µM in each case. Also, the TGI in the assay on SNB-19 CNS, with SK-MEL-2 melanoma and with CAKI-1 renal was over 25 µM throughout.

With `COc1cc2c(c(OC)c1OC)-c1ncc3cc4c(cc3c1C2)OCO4`, the GI50 with EKVX NSCLC was 15.6 µM; in the assay with NCI-H460 lung it was 15.5 µM; with PC-3 prostate, 34.7 µM; with OVCAR-3 ovarian it was 15.5 µM; in the assay on HOP-62 NSCLC, 21.7 µM; in the assay on SNB-19 CNS it was over 100 µM. Moreover, the GI50 with SK-MEL-2 melanoma is 38.9 µM; in the assay with CAKI-1 renal, 18 µM. Further, the TGI in the assay on EKVX NSCLC is 51.7 µM; in the assay with NCI-H460 lung it was 38.2 µM; in the assay on PC-3 prostate, over 100 µM; with OVCAR-3 ovarian, 38.1 µM; with HOP-62 NSCLC, 46.6 µM; with SNB-19 CNS it was over 100 µM. For the same molecule, the TGI was over 100 µM with SK-MEL-2 melanoma and 71.7 µM in the assay on CAKI-1 renal.

For the molecule `[N-]=[N+]=Nc1cc(=O)[nH]nc1-c1ccccc1`, the TGI with EKVX NSCLC, in the assay with NCI-H23 lung, in the assay on NCI-H460 lung, with SF-539 CNS, with PC-3 prostate and in the assay with OVCAR-3 ovarian was over 100 µM each time. In addition, the TGI in the assay with HOP-62 NSCLC was over 100 µM.

On to `CN1C(=O)/C(=C/c2c(Cl)n(C)c3ccccc23)c2ccccc21`, for which the GI50 in the assay with EKVX NSCLC was 2.11 µM; with NCI-H23 lung, 1.92 µM and 1.56 µM; in the assay on NCI-H460 lung it was 6.17 µM and 2.84 µM; in the assay with PC-3 prostate, 2.67 µM; in the assay on OVCAR-3 ovarian it was 2.05 µM and 1.45 µM; with HOP-62 NSCLC, 2.99 µM. In addition, the GI50 in the assay with SNB-19 CNS is 6.84 µM; with SK-MEL-2 melanoma, 5 µM; with CAKI-1 renal it was 3.3 µM and 1.43 µM. In addition, the TGI was 6.03 µM with EKVX NSCLC; 5.96 µM and 2.94 µM in the assay on NCI-H23 lung; over 100 µM in the assay on NCI-H460 lung; 5.17 µM and 2.76 µM with OVCAR-3 ovarian; 8.96 µM in the assay with HOP-62 NSCLC; 2.77 µM in the assay on CAKI-1 renal.
